Values after ≈ are worked out from the molar mass of the structure shown.
How the values were obtained:
Enterococcus faecalis = experiment: Antibacterial activity against Enterococcus faecalis ATCC 14506 after 24 hr by broth microdilution method; assay type: functional; conditions: ATCC 14506, 24 h
Staphylococcus aureus = experiment: Antibacterial activity against Staphylococcus aureus ATCC 11632 after 24 hr by broth microdilution method; assay type: functional; conditions: ATCC 11632, 24 h
Escherichia coli = experiment: Antibacterial activity against Escherichia coli ATCC 10536 after 24 hr by broth microdilution method; assay type: functional; conditions: ATCC 10536, 24 h
Bacillus subtilis = experiment: Antibacterial activity against Bacillus subtilis ATCC 60511 after 24 hr by broth microdilution method; assay type: functional; conditions: ATCC 60511, 24 h
Saccharomyces cerevisiae = experiment: Antifungal activity against Saccharomyces cerevisiae ATCC 9763 after 24 hr by broth microdilution method; assay type: functional; conditions: ATCC 9763, 24 h
[1] = tested on: Mycobacterium tuberculosis; experiment: Antitubercular activity against Mycobacterium tuberculosis H37Rv after 21 days by broth microdilution method; assay type: functional; conditions: 504 h
Aspergillus niger = experiment: Antifungal activity against Aspergillus niger ATCC 6275 after 24 hr by broth microdilution method; assay type: functional; conditions: ATCC 6275, 24 h
Klebsiella pneumoniae = experiment: Antibacterial activity against Klebsiella pneumoniae ATCC 10031 after 24 hr by broth microdilution method; assay type: functional; conditions: ATCC 10031, 24 h
Pseudomonas aeruginosa = experiment: Antibacterial activity against Pseudomonas aeruginosa ATCC 10145 after 24 hr by broth microdilution method; assay type: functional; conditions: ATCC 10145, 24 h
Candida tropicalis = experiment: Antifungal activity against Candida tropicalis ATCC 1369 after 24 hr by broth microdilution method; assay type: functional; conditions: ATCC 1369, 24 h
A549 = experiment: Cytotoxicity against Homo sapiens (human) A549 cells at […] by MTT assay relative to control; assay type: cell-based

| SMILES | MIC (Enterococcus faecalis) [µg/mL] | MIC (Staphylococcus aureus) [µg/mL] | MIC (Escherichia coli) [µg/mL] | MIC (Bacillus subtilis) [µg/mL] | MIC (Saccharomyces cerevisiae) [µg/mL] | MIC [1] [µg/mL] | MIC (Aspergillus niger) [µg/mL] | MIC (Klebsiella pneumoniae) [µg/mL] | MIC (Pseudomonas aeruginosa) [µg/mL] | MIC (Candida tropicalis) [µg/mL] | Activity (A549) |
| --- | --- | --- | --- | --- | --- | --- | --- | --- | --- | --- | --- |
| CC(C)c1csc(-c2nnc(S(=O)(=O)Cc3ccc(Br)cc3)n2/N=C/c2ccc(F)cc2)n1 | 62.5 (≈ 114 µM) | 62.5 (≈ 114 µM) | 8 (≈ 14.6 µM) | 8 (≈ 14.6 µM) | 31.2 (≈ 57 µM) | 8 (≈ 14.6 µM) | 125 (≈ 228 µM) | 8 (≈ 14.6 µM) | 62.5 (≈ 114 µM) | 31.2 (≈ 57 µM) | – |
| CC(C)c1csc(-c2nnc(S(=O)(=O)Cc3ccc(Br)cc3F)n2/N=C/c2ccc(Cl)cc2)n1 | 31.2 (≈ 53.6 µM) | 31.2 (≈ 53.6 µM) | 62.5 (≈ 107 µM) | 8 (≈ 13.7 µM) | 16 (≈ 27.4 µM) | 8 (≈ 13.7 µM) | 8 (≈ 13.7 µM) | 31.2 (≈ 53.6 µM) | 16 (≈ 27.4 µM) | 8 (≈ 13.7 µM) | – |
| CC(C)c1csc(-c2nnc(S(=O)(=O)Cc3ccc(C(F)(F)F)cc3)n2/N=C/c2ccc(Cl)cc2)n1 | 8 (≈ 14.4 µM) | 4 (≈ 7.22 µM) | 8 (≈ 14.4 µM) | 4 (≈ 7.22 µM) | 4 (≈ 7.22 µM) | 4 (≈ 7.22 µM) | 4 (≈ 7.22 µM) | 16 (≈ 28.9 µM) | 4 (≈ 7.22 µM) | 8 (≈ 14.4 µM) | 50% |
| CC(C)c1csc(-c2nnc(S(=O)(=O)Cc3ccc(Cl)cc3)n2/N=C/c2ccc(Cl)cc2)n1 | 8 (≈ 15.4 µM) | 8 (≈ 15.4 µM) | 62.5 (≈ 120 µM) | 31.2 (≈ 60 µM) | 16 (≈ 30.7 µM) | 8 (≈ 15.4 µM) | 8 (≈ 15.4 µM) | 31.2 (≈ 60 µM) | 8 (≈ 15.4 µM) | 8 (≈ 15.4 µM) | – |
| CC(C)c1csc(-c2nnc(S(=O)(=O)Cc3ccccc3)n2/N=C/c2c(F)cccc2F)n1 | 8 (≈ 16.4 µM) | 4 (≈ 8.2 µM) | 31.2 (≈ 64.1 µM) | 62.5 (≈ 128 µM) | 8 (≈ 16.4 µM) | 4 (≈ 8.2 µM) | 8 (≈ 16.4 µM) | 31.2 (≈ 64.1 µM) | 4 (≈ 8.2 µM) | 16 (≈ 32.8 µM) | – |
| CC(C)c1csc(-c2nnc(S(=O)(=O)Cc3ccc(Cl)cc3)o2)n1 | 31.2 (≈ 81.4 µM) | 16 (≈ 41.7 µM) | 4 (≈ 10.4 µM) | 8 (≈ 20.8 µM) | 8 (≈ 20.8 µM) | 4 (≈ 10.4 µM) | 16 (≈ 41.7 µM) | 8 (≈ 20.8 µM) | 8 (≈ 20.8 µM) | 8 (≈ 20.8 µM) | – |
| CC(C)c1csc(-c2nnc(S(=O)(=O)Cc3ccc(Br)cc3)o2)n1 | 31.2 (≈ 73 µM) | 8 (≈ 18.7 µM) | 4 (≈ 9.34 µM) | 31.2 (≈ 73 µM) | 62.5 (≈ 146 µM) | 4 (≈ 9.34 µM) | 31.2 (≈ 73 µM) | 8 (≈ 18.7 µM) | 8 (≈ 18.7 µM) | 31.2 (≈ 73 µM) | – |
| CC(C)c1csc(-c2nnc(S(=O)(=O)Cc3ccccc3C(F)(F)F)o2)n1 | 16 (≈ 38.3 µM) | 8 (≈ 19.2 µM) | 8 (≈ 19.2 µM) | 31.2 (≈ 74.9 µM) | 8 (≈ 19.2 µM) | 2 (≈ 4.79 µM) | 125 (≈ 299 µM) | 2 (≈ 4.79 µM) | 4 (≈ 9.58 µM) | 31.2 (≈ 74.9 µM) | 50% |
| CC(C)c1csc(-c2nnc(S(=O)(=O)Cc3ccccc3)o2)n1 | 16 (≈ 45.8 µM) | 62.5 (≈ 179 µM) | 8 (≈ 22.9 µM) | 31.2 (≈ 89.4 µM) | 4 (≈ 11.4 µM) | 4 (≈ 11.4 µM) | 16 (≈ 45.8 µM) | 8 (≈ 22.9 µM) | 8 (≈ 22.9 µM) | 8 (≈ 22.9 µM) | – |
| CC(C)c1csc(-c2nnc(S(=O)(=O)Cc3cc(Cl)ccc3F)o2)n1 | 31.2 (≈ 77.8 µM) | 8 (≈ 19.9 µM) | 8 (≈ 19.9 µM) | 8 (≈ 19.9 µM) | 16 (≈ 39.8 µM) | 4 (≈ 9.95 µM) | 8 (≈ 19.9 µM) | 4 (≈ 9.95 µM) | 4 (≈ 9.95 µM) | 8 (≈ 19.9 µM) | – |
| CC(C)c1csc(-c2nnc(S(=O)(=O)Cc3ccc(Br)cc3F)n2-c2ccccc2)n1 | 31.2 (≈ 59.9 µM) | 31.2 (≈ 59.9 µM) | 8 (≈ 15.3 µM) | 16 (≈ 30.7 µM) | 16 (≈ 30.7 µM) | 8 (≈ 15.3 µM) | 16 (≈ 30.7 µM) | 16 (≈ 30.7 µM) | 16 (≈ 30.7 µM) | 31.2 (≈ 59.9 µM) | – |
| CC(C)c1csc(-c2nnc(S(=O)(=O)Cc3ccc(C(F)(F)F)cc3)n2-c2ccccc2)n1 | 8 (≈ 16.2 µM) | 4 (≈ 8.12 µM) | 16 (≈ 32.5 µM) | 8 (≈ 16.2 µM) | 16 (≈ 32.5 µM) | 4 (≈ 8.12 µM) | 16 (≈ 32.5 µM) | 16 (≈ 32.5 µM) | 16 (≈ 32.5 µM) | 31.2 (≈ 63.4 µM) | – |
| CC(C)c1csc(-c2nnc(S(=O)(=O)Cc3ccc(Br)cc3)n2-c2ccccc2)n1 | 16 (≈ 31.8 µM) | 8 (≈ 15.9 µM) | 16 (≈ 31.8 µM) | 16 (≈ 31.8 µM) | 16 (≈ 31.8 µM) | 8 (≈ 15.9 µM) | 16 (≈ 31.8 µM) | 16 (≈ 31.8 µM) | 8 (≈ 15.9 µM) | 16 (≈ 31.8 µM) | – |
| CC(C)c1csc(-c2nnc(S(=O)(=O)Cc3cc(Cl)ccc3F)n2-c2ccccc2)n1 | 31.2 (≈ 65.5 µM) | 16 (≈ 33.5 µM) | 4 (≈ 8.39 µM) | 31.2 (≈ 65.5 µM) | 16 (≈ 33.5 µM) | 4 (≈ 8.39 µM) | 31.2 (≈ 65.5 µM) | 8 (≈ 16.8 µM) | 8 (≈ 16.8 µM) | 16 (≈ 33.5 µM) | – |
| CC(C)c1csc(-c2nnc(S(=O)(=O)Cc3ccc(OC(F)(F)F)cc3)n2-c2ccccc2)n1 | 8 (≈ 15.7 µM) | 31.2 (≈ 61.4 µM) | 2 (≈ 3.93 µM) | 8 (≈ 15.7 µM) | 16 (≈ 31.5 µM) | 1 (≈ 1.97 µM) | 31.2 (≈ 61.4 µM) | 4 (≈ 7.87 µM) | 8 (≈ 15.7 µM) | 16 (≈ 31.5 µM) | 50% |
| CC(C)c1csc(-c2nnc(S(=O)(=O)Cc3ccc(Br)cc3F)n2/N=C/c2c(F)cccc2F)n1 | 31.2 (≈ 53.5 µM) | 31.2 (≈ 53.5 µM) | 16 (≈ 27.4 µM) | 16 (≈ 27.4 µM) | 16 (≈ 27.4 µM) | 8 (≈ 13.7 µM) | 16 (≈ 27.4 µM) | 31.2 (≈ 53.5 µM) | 8 (≈ 13.7 µM) | 16 (≈ 27.4 µM) | – |
| CC(C)c1csc(-c2nnc(S(=O)(=O)Cc3ccc(C(F)(F)F)cc3)n2/N=C/c2c(F)cccc2F)n1 | 16 (≈ 28.8 µM) | 8 (≈ 14.4 µM) | 4 (≈ 7.2 µM) | 8 (≈ 14.4 µM) | 16 (≈ 28.8 µM) | 0.5 (≈ 0.9 µM) | 8 (≈ 14.4 µM) | 16 (≈ 28.8 µM) | 8 (≈ 14.4 µM) | 4 (≈ 7.2 µM) | 50% |
| CC(C)c1csc(-c2nnc(S(=O)(=O)Cc3ccc(Cl)cc3)n2/N=C/c2c(F)cccc2F)n1 | 31.2 (≈ 59.9 µM) | 31.2 (≈ 59.9 µM) | 8 (≈ 15.3 µM) | 8 (≈ 15.3 µM) | 62.5 (≈ 120 µM) | 8 (≈ 15.3 µM) | 31.2 (≈ 59.9 µM) | 31.2 (≈ 59.9 µM) | 62.5 (≈ 120 µM) | 16 (≈ 30.7 µM) | – |
| CC(C)c1csc(-c2nnc(S(=O)(=O)Cc3ccc(Br)cc3)n2/N=C/c2c(F)cccc2F)n1 | 16 (≈ 28.2 µM) | 31.2 (≈ 55.2 µM) | 8 (≈ 14.1 µM) | 16 (≈ 28.2 µM) | 62.5 (≈ 110 µM) | 8 (≈ 14.1 µM) | 8 (≈ 14.1 µM) | 8 (≈ 14.1 µM) | 8 (≈ 14.1 µM) | 8 (≈ 14.1 µM) | – |
| CC(C)c1csc(-c2nnc(S(=O)(=O)Cc3ccc(Br)cc3F)n2/N=C/c2ccc(F)cc2)n1 | 31.2 (≈ 55.2 µM) | 16 (≈ 28.2 µM) | 8 (≈ 14.1 µM) | 31.2 (≈ 55.2 µM) | 31.2 (≈ 55.2 µM) | 16 (≈ 28.2 µM) | 31.2 (≈ 55.2 µM) | 8 (≈ 14.1 µM) | 62.5 (≈ 110 µM) | 31.2 (≈ 55.2 µM) | – |
| CC(C)c1csc(-c2nnc(S(=O)(=O)Cc3ccc(C(F)(F)F)cc3)n2/N=C/c2ccc(F)cc2)n1 | 8 (≈ 14.9 µM) | 4 (≈ 7.44 µM) | 8 (≈ 14.9 µM) | 8 (≈ 14.9 µM) | 4 (≈ 7.44 µM) | 2 (≈ 3.72 µM) | 4 (≈ 7.44 µM) | 4 (≈ 7.44 µM) | 8 (≈ 14.9 µM) | 16 (≈ 29.8 µM) | Toxic |
| CC(C)c1csc(-c2nnc(S(=O)(=O)Cc3ccc(Cl)cc3)n2/N=C/c2ccc(F)cc2)n1 | 4 (≈ 7.94 µM) | 8 (≈ 15.9 µM) | 16 (≈ 31.7 µM) | 4 (≈ 7.94 µM) | 31.2 (≈ 62 µM) | 8 (≈ 15.9 µM) | 31.2 (≈ 62 µM) | 31.2 (≈ 62 µM) | 16 (≈ 31.7 µM) | 31.2 (≈ 62 µM) | – |
| O=C(O)c1cn(C2CC2)c2cc(N3CCNCC3)c(F)cc2c1=O [CIPROFLOXACIN] | ≤ 5 | ≤ 5 | ≤ 1 | ≤ 1 | – | – | – | ≤ 1 | ≤ 5 | – | – |
| OC(Cn1cncn1)(Cn1cncn1)c1ccc(F)cc1F [FLUCONAZOLE] | – | – | – | – | ≤ 1 | – | ≤ 1 | – | – | ≤ 1 | – |
| NNC(=O)c1ccncc1 [ISONIAZID] | – | – | – | – | – | 0.25 (≈ 1.82 µM) | – | – | – | – | – |
| CCn1cc(C(=O)O)c(=O)c2cc(F)c(N3CCNCC3)cc21 [NORFLOXACIN] | ≤ 5 | ≤ 5 | ≤ 1 | ≤ 1 | – | – | – | ≤ 1 | ≤ 5 | – | – |
